Patent US20110143948A1, “MOLECULAR SIGNATURES AND BIOMARKERS ASSOCIATED WITH MELANOMA AND METHODS OF USE THEREOF” (priority 2008, published 2011)

Test system: ncRNAs (SEQ ID NO 28-89)
Assay: ncRNA arrays of melanocytes, keratinocytes, normal skin, melanoma cell lines and patient samples
Set-up: species or system human
Conditions: for ncRNA array expression, patient 2: melanoma patient 2 sample compared to normal skin; for ncRNA array expression, patient 3: melanoma patient 3 sample compared to normal skin; for ncRNA array expression, patient 4: melanoma patient 4 sample compared to normal skin; for ncRNA array expression, patient 5: melanoma patient 5 sample compared to normal skin; for ncRNA array expression, patient 6: melanoma patient 6 sample compared to normal skin; for ncRNA array expression, patient 7: melanoma patient 7 sample compared to normal skin; for ncRNA array expression, patient 8: melanoma patient 8 sample compared to normal skin; for ncRNA array expression, patient 9: melanoma patient 9 sample compared to normal skin; for ncRNA array expression, patient 10: melanoma patient 10 sample compared to normal skin; for ncRNA array expression, patient 19: melanoma patient 19 sample compared to normal skin; for ncRNA array expression, patient 20: melanoma patient 20 sample compared to normal skin; for ncRNA array expression, patient 21: melanoma patient 21 sample compared to normal skin; for ncRNA array expression, patient 22: melanoma patient 22 sample compared to normal skin; for ncRNA array expression, patient 23: melanoma patient 23 sample compared to normal skin; for ncRNA array expression, patient 24: melanoma patient 24 sample compared to normal skin; for ncRNA array expression, patient 25: melanoma patient 25 sample compared to normal skin; for ncRNA array expression, patient 26: melanoma patient 26 sample compared to normal skin; for ncRNA array expression, patient 27: melanoma patient 27 sample compared to normal skin; for ncRNA array expression, patient 28: melanoma patient 28 sample compared to normal skin; for ncRNA array expression, patient 29: melanoma patient 29 sample compared to normal skin; for ncRNA array expression, patient 30: melanoma patient 30 sample compared to normal skin
Method: An ncRNA array platform that contains over 10,000 putative (>200 nt) ncRNAs including most of the known ncRNAs in mouse and human was conducted to evaluate ncRNAs within melanoma. Lack of coding potential was estimated by an algorithm that scores various characteristics of protein-coding genes, including open reading frame length, synonymous/non-synonymous base substitution rates and similarity to known proteins. These arrays provide the first generation of tools designed to analyze the dynamic expression of a large subset of ncRNAs in human and mouse and to identify candidate genes for more detailed functional analysis. In addition to the ncRNA content, probes targeting mRNA content from RefSeq are also included, allowing discovery of coordinated expression with associated protein-coding genes. The result of these assays is a list of ncRNA genes (i.e. SEQ ID NO 28-89) and maps of their sequence boundaries. We have profiled total RNA isolated from melanocytes, keratinocytes, normal human skin, melanoma cell lines and melanoma patient samples to identify differentially expressed ncRNAs in cell lines and tissues. ncRNAs expression in all tested samples were compared to either melanocytes or normal skin. We have identified a group of ncRNAs that are specific for (a) melanocytes (b) Keratinocytes (c) Melanoma cell lines (d) Melanoma patients. […] Probe DNA sequences for this array include: AF086032 (SEQ ID NO 107) […] BC071821 (SEQ ID NO 108) […] C AK130193 (SEQ ID NO 109) […] AL109719 (SEQ ID NO 110) […] AF085888 (SEQ ID NO 111) […] T BC033879 (SEQ ID NO 112) […] AA AK024556 (SEQ ID NO 113) […] Probe nomenclature is standard genebank IDs given by NCBI and other organizations.
Keratinocytes specific signatures were subtracted and resultant ncRNAs were validated by qRT-PCR and Northern blots. Results point out the presence of a group of melanoma specific ncRNAs (i.e. SEQ ID NO 28-89).

Substance	ncRNA array expression, patient 2	ncRNA array expression, patient 3	ncRNA array expression, patient 4	ncRNA array expression, patient 5	ncRNA array expression, patient 6	ncRNA array expression, patient 7	ncRNA array expression, patient 8	ncRNA array expression, patient 9	ncRNA array expression, patient 10	ncRNA array expression, patient 19	ncRNA array expression, patient 20	ncRNA array expression, patient 21	ncRNA array expression, patient 22	ncRNA array expression, patient 23	ncRNA array expression, patient 24	ncRNA array expression, patient 25	ncRNA array expression, patient 26	ncRNA array expression, patient 27	ncRNA array expression, patient 28	ncRNA array expression, patient 29	other results
SEQ ID NO 28 (CTTAATGTATCTAAGGTTGGCTTAATCCTGTCTAAAATCAAGGTATTGGACTAGAACAAT; DNA, backbone and methylation of C not given here; listed as Homo sapiens)	2.064	2.037	2.709	1.822	−0.1399	2.032	1.588	0.7923	−0.2665	0.5486	1.334	0.4728	1.388	2.286	0.3368	2.417	3.091	2.371	3.316	3.278	ncRNA array expression, patient 30: −1.35
SEQ ID NO 29 (TTAAATACATGTTTCTAATATTTTAGTGTTTTGTATTTAGGTTATTTATTCTTTGTATCT; DNA, backbone and methylation of C not given here; listed as Homo sapiens)	3.623	2.485	3.452	2.59	1.012	2.658	3.211	2.109	2.287	0.6625	2.377	2.504	1.796	1.689	2.143	3.284	3.992	2.873	2.81	4.101	ncRNA array expression, patient 30: −2.062
SEQ ID NO 30 (ATTCCAAGGCCTATTAAAATTTCTGAGCATTGCCCATTTCTTTTGCTTTATCTGTAGGAC; DNA, backbone and methylation of C not given here; listed as Homo sapiens)	4.3	3.169	2.472	3.84	2.191	4.639	2.888	0.4508	3.549	0.5363	1.367	3.468	1.187	0.3079	−1.318	1.316	2.451	4.706	0.8038	4.757	ncRNA array expression, patient 30: 1.117
SEQ ID NO 31 (TTGCTTTTGTATTTGTAATTTTATGACATTTCGAAGTTTCTGTGTCTTAACTCTTTTTAA; listed as DNA, chemistry not given here; listed as Homo sapiens)	2.958	2.154	2.238	2.368	1.429	4.22	−0.4178	2.588	3.165	2.105	2.853	4.304	2.578	2.86	1.373	2.408	3.487	2.156	2.25	2.949	ncRNA array expression, patient 30: −2.886
SEQ ID NO 32 (ATTCAAATCTTCATGAATGGCATCACTTGCTTTAGACCCATTTTTTTTTTATTGGTCAGA; DNA, backbone and methylation of C not given here; listed as Homo sapiens)	1.211	0.4737	2.717	1.51	0.7439	1.568	2.606	1.062	0.7286	2.126	3.196	0.7443	0.9022	0.8613	1.339	4.072	3.121	3.501	0.9963	1.473	ncRNA array expression, patient 30: −2.05
SEQ ID NO 33 (TATTGAATGTACACAAGTAATGATGGAGTTTGATTATATGGTTCATTTTCATTTATCCTA; DNA, backbone and methylation of C not given here; listed as Homo sapiens)	0.6575	0.8123	3.512	0.6998	1.768	2.379	2.278	0.3136	1.984	1.068	1.404	1.613	0.8185	−0.4072	3.016	1.628	2.999	3.593	2.24	2.111	ncRNA array expression, patient 30: −0.2823
